Where a SMILES comes first, the peptide text is derived from it. [ ]: non-standard residue; d: D form. The star is where a group is joined. X1 = N[C@@H](CCCCNC(=O)CC[C@H](NC(=O)CCCCCCCCCCCCCCCCCCC(=O)O)C(=O)O)C(=O)NCCCC[C@H](N)C(=O)N[C@@H](CCCCNC(=O)C*)C(=O)O; X6 = N[C@@H](CCCCNC(=O)CC[C@H](NC(=O)CCCCCCCCCCCCCCCCC(=O)O)C(=O)O)C(=O)NCCCC[C@H](N)C(=O)N[C@@H](CCCCNC(=O)C*)C(=O)O; X5 = O=C(O)CCCCCCCCCCCCCCCCCCC(=O)N[C@@H](CCC(=O)NCCOCCOCC(=O)NCCOCCOCC(=O)N[C@@H](CCCCNC(=O)C*)C(=O)O)C(=O)O; Aib = CC(C)(N)C(=O)O
Experiments:
[1] = biological target: T1, Gastric inhibitory polypeptide receptor (Homo sapiens, UniProt P48546); assay: Agonist activity at human GIPR expressed in CHO cells assessed as increase in cAMP production incubated for 30 mins by Eu-cAMP tracer based microplate reader analysis; format: functional, cell-based
T1 sequence (P48546 whole entry): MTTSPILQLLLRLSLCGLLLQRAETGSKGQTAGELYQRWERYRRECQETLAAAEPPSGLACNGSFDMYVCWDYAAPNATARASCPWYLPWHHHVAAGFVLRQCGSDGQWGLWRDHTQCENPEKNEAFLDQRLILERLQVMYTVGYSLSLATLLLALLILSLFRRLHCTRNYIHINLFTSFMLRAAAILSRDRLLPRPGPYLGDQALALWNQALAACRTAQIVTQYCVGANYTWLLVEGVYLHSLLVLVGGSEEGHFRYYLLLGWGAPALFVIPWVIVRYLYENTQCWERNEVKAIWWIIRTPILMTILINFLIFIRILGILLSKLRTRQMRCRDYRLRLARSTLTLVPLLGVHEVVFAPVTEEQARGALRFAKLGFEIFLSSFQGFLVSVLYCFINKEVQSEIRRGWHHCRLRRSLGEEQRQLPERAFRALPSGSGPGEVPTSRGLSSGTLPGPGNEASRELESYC

[2] = biological target: Glucagon-like peptide 1 receptor (Homo sapiens, UniProt P43220); assay: Agonist activity at human GLP-1R expressed in CHO cells assessed as increase in cAMP production incubated for 30 mins by Eu-cAMP tracer based microplate reader analysis; format: functional, cell-based
Glucagon-like peptide 1 receptor, sequence (P43220 whole entry): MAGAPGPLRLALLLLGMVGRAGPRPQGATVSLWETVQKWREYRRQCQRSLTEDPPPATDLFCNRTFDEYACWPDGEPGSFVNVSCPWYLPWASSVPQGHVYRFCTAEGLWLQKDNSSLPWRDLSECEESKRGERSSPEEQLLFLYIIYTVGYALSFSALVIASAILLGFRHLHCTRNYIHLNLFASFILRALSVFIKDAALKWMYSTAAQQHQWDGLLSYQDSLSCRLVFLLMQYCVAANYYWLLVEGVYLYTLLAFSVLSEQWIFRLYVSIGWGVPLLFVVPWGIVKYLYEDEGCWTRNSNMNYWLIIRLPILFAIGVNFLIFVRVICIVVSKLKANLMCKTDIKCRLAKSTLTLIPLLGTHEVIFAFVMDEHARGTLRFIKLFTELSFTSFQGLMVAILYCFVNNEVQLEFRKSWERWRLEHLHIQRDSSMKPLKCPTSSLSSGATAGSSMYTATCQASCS

Compound	EC50 ([1]; cho)	EC50 ([2]; cho)	EC50 [1]	EC50 [2]
CC(C)C[C@H](NC(=O)[C@H](CC(C)C)NC(=O)[C@H](Cc1c[nH]c2ccccc12)NC(=O)[C@H](CCC(N)=O)NC(=O)[C@@H](NC(=O)[C@H](Cc1ccccc1)NC(=O)[C@H](CC(C)C)NC(=O)[C@H](CCCCN)NC(=O)[C@H](C)NC(=O)[C@H](C)NC(=O)[C@H](CCC(N)=O)NC(=O)[C@H](CS)NC(=O)[C@H](CCC(=O)O)NC(=O)[C@H](CC(C)C)NC(=O)[C@H](Cc1ccc(O)cc1)NC(=O)[C@H](Cc1ccc(O)cc1)NC(=O)[C@H](CO)NC(=O)[C@H](Cc1ccc(O)cc1)NC(=O)[C@H](CC(=O)O)NC(=O)[C@H](CO)NC(=O)[C@@H](NC(=O)[C@H](Cc1ccccc1)NC(=O)[C@@H](NC(=O)CNC(=O)[C@H](CCC(=O)O)NC(=O)C(C)(C)NC(=O)[C@@H](N)Cc1ccc(O)cc1)[C@@H](C)O)[C@@H](C)O)C(C)C)C(=O)N[C@@H](C)C(=O)NCC(=O)NCC(=O)N1CCC[C@H]1C(=O)N[C@@H](CO)C(=O)N[C@@H](CO)C(=O)NCC(=O)N[C@@H](C)C(=O)N1CCC[C@H]1C(=O)N1CCC[C@H]1C(=O)N1CCC[C@H]1C(=O)N[C@@H](CO)C(N)=O (H-Y[Aib]EGTFTSDYSYYLECQAAKLFVQWLLAGGPSSGAPPPS-NH2)	1.87 nM	0.6 nM	–	–
CC(C)C[C@H](NC(=O)[C@H](CC(C)C)NC(=O)[C@H](Cc1c[nH]c2ccccc12)NC(=O)[C@H](CS)NC(=O)[C@@H](NC(=O)[C@H](Cc1ccccc1)NC(=O)[C@H](CC(C)C)NC(=O)[C@H](CCCCN)NC(=O)[C@H](C)NC(=O)[C@H](C)NC(=O)[C@H](CCC(N)=O)NC(=O)[C@H](CCCCN)NC(=O)[C@H](CCC(=O)O)NC(=O)[C@H](CC(C)C)NC(=O)[C@H](Cc1ccc(O)cc1)NC(=O)[C@H](Cc1ccc(O)cc1)NC(=O)[C@H](CO)NC(=O)[C@H](Cc1ccc(O)cc1)NC(=O)[C@H](CC(=O)O)NC(=O)[C@H](CO)NC(=O)[C@@H](NC(=O)[C@H](Cc1ccccc1)NC(=O)[C@@H](NC(=O)CNC(=O)[C@H](CCC(=O)O)NC(=O)C(C)(C)NC(=O)[C@@H](N)Cc1ccc(O)cc1)[C@@H](C)O)[C@@H](C)O)C(C)C)C(=O)N[C@@H](C)C(=O)NCC(=O)NCC(=O)N1CCC[C@H]1C(=O)N[C@@H](CO)C(=O)N[C@@H](CO)C(=O)NCC(=O)N[C@@H](C)C(=O)N1CCC[C@H]1C(=O)N1CCC[C@H]1C(=O)N1CCC[C@H]1C(=O)N[C@@H](CO)C(N)=O (H-Y[Aib]EGTFTSDYSYYLEKQAAKLFVCWLLAGGPSSGAPPPS-NH2)	–	–	2.57 nM	0.57 nM
CC(C)C[C@H](NC(=O)[C@H](CC(C)C)NC(=O)[C@H](Cc1c[nH]c2ccccc12)NC(=O)[C@H](CSCC(=O)NCCCC[C@H](NC(=O)[C@@H](N)CCCCNC(=O)[C@@H](N)CCCCNC(=O)CC[C@H](NC(=O)CCCCCCCCCCCCCCCCC(=O)O)C(=O)O)C(=O)O)NC(=O)[C@@H](NC(=O)[C@H](Cc1ccccc1)NC(=O)[C@H](CC(C)C)NC(=O)[C@H](CCCCN)NC(=O)[C@H](C)NC(=O)[C@H](C)NC(=O)[C@H](CCC(N)=O)NC(=O)[C@H](CCCCN)NC(=O)[C@H](CCC(=O)O)NC(=O)[C@H](CC(C)C)NC(=O)[C@H](Cc1ccc(O)cc1)NC(=O)[C@H](Cc1ccc(O)cc1)NC(=O)[C@H](CO)NC(=O)[C@H](Cc1ccc(O)cc1)NC(=O)[C@H](CC(=O)O)NC(=O)[C@H](CO)NC(=O)[C@@H](NC(=O)[C@H](Cc1ccccc1)NC(=O)[C@@H](NC(=O)CNC(=O)[C@H](CCC(=O)O)NC(=O)C(C)(C)NC(=O)[C@@H](N)Cc1ccc(O)cc1)[C@@H](C)O)[C@@H](C)O)C(C)C)C(=O)N[C@@H](C)C(=O)NCC(=O)NCC(=O)N1CCC[C@H]1C(=O)N[C@@H](CO)C(=O)N[C@@H](CO)C(=O)NCC(=O)N[C@@H](C)C(=O)N1CCC[C@H]1C(=O)N1CCC[C@H]1C(=O)N1CCC[C@H]1C(=O)N[C@@H](CO)C(N)=O (H-Y[Aib]EGTFTSDYSYYLEKQAAKLFVC(X6)WLLAGGPSSGAPPPS-NH2)	–	–	2.76 nM	0.4 nM
CC(C)C[C@H](NC(=O)[C@H](CC(C)C)NC(=O)[C@H](Cc1c[nH]c2ccccc12)NC(=O)[C@H](CCC(N)=O)NC(=O)[C@@H](NC(=O)[C@H](Cc1ccccc1)NC(=O)[C@H](CC(C)C)NC(=O)[C@H](CSCC(=O)NCCCC[C@H](NC(=O)[C@@H](N)CCCCNC(=O)[C@@H](N)CCCCNC(=O)CC[C@H](NC(=O)CCCCCCCCCCCCCCCCC(=O)O)C(=O)O)C(=O)O)NC(=O)[C@H](C)NC(=O)[C@H](C)NC(=O)[C@H](CCC(N)=O)NC(=O)[C@H](CCCCN)NC(=O)[C@H](CCC(=O)O)NC(=O)[C@H](CC(C)C)NC(=O)[C@H](Cc1ccc(O)cc1)NC(=O)[C@H](Cc1ccc(O)cc1)NC(=O)[C@H](CO)NC(=O)[C@H](Cc1ccc(O)cc1)NC(=O)[C@H](CC(=O)O)NC(=O)[C@H](CO)NC(=O)[C@@H](NC(=O)[C@H](Cc1ccccc1)NC(=O)[C@@H](NC(=O)CNC(=O)[C@H](CCC(=O)O)NC(=O)C(C)(C)NC(=O)[C@@H](N)Cc1ccc(O)cc1)[C@@H](C)O)[C@@H](C)O)C(C)C)C(=O)N[C@@H](C)C(=O)NCC(=O)NCC(=O)N1CCC[C@H]1C(=O)N[C@@H](CO)C(=O)N[C@@H](CO)C(=O)NCC(=O)N[C@@H](C)C(=O)N1CCC[C@H]1C(=O)N1CCC[C@H]1C(=O)N1CCC[C@H]1C(=O)N[C@@H](CO)C(N)=O (H-Y[Aib]EGTFTSDYSYYLEKQAAC(X6)LFVQWLLAGGPSSGAPPPS-NH2)	–	–	19.2 nM	1.26 nM
CC(C)C[C@H](NC(=O)[C@H](CC(C)C)NC(=O)[C@H](Cc1c[nH]c2ccccc12)NC(=O)[C@H](CCC(N)=O)NC(=O)[C@@H](NC(=O)[C@H](Cc1ccccc1)NC(=O)[C@H](CC(C)C)NC(=O)[C@H](CCCCN)NC(=O)[C@H](C)NC(=O)[C@H](C)NC(=O)[C@H](CCC(N)=O)NC(=O)[C@H](CCCCN)NC(=O)[C@H](CCC(=O)O)NC(=O)[C@H](CC(C)C)NC(=O)[C@H](CSCC(=O)NCCCC[C@H](NC(=O)COCCOCCNC(=O)COCCOCCNC(=O)CC[C@H](NC(=O)CCCCCCCCCCCCCCCCCCC(=O)O)C(=O)O)C(=O)O)NC(=O)[C@H](Cc1ccc(O)cc1)NC(=O)[C@H](CO)NC(=O)[C@H](Cc1ccc(O)cc1)NC(=O)[C@H](CC(=O)O)NC(=O)[C@H](CO)NC(=O)[C@@H](NC(=O)[C@H](Cc1ccccc1)NC(=O)[C@@H](NC(=O)CNC(=O)[C@H](CCC(=O)O)NC(=O)C(C)(C)NC(=O)[C@@H](N)Cc1ccc(O)cc1)[C@@H](C)O)[C@@H](C)O)C(C)C)C(=O)N[C@@H](C)C(=O)NCC(=O)NCC(=O)N1CCC[C@H]1C(=O)N[C@@H](CO)C(=O)N[C@@H](CO)C(=O)NCC(=O)N[C@@H](C)C(=O)N1CCC[C@H]1C(=O)N1CCC[C@H]1C(=O)N1CCC[C@H]1C(=O)N[C@@H](CO)C(N)=O (H-Y[Aib]EGTFTSDYSYC(X5)LEKQAAKLFVQWLLAGGPSSGAPPPS-NH2)	–	–	0.42 nM	1.34 nM
CC(C)C[C@H](NC(=O)[C@H](CC(C)C)NC(=O)[C@H](Cc1c[nH]c2ccccc12)NC(=O)[C@H](CSCC(=O)NCCCC[C@H](NC(=O)[C@@H](N)CCCCNC(=O)[C@@H](N)CCCCNC(=O)CC[C@H](NC(=O)CCCCCCCCCCCCCCCCCCC(=O)O)C(=O)O)C(=O)O)NC(=O)[C@@H](NC(=O)[C@H](Cc1ccccc1)NC(=O)[C@H](CC(C)C)NC(=O)[C@H](CCCCN)NC(=O)[C@H](C)NC(=O)[C@H](C)NC(=O)[C@H](CCC(N)=O)NC(=O)[C@H](CCCCN)NC(=O)[C@H](CCC(=O)O)NC(=O)[C@H](CC(C)C)NC(=O)[C@H](Cc1ccc(O)cc1)NC(=O)[C@H](Cc1ccc(O)cc1)NC(=O)[C@H](CO)NC(=O)[C@H](Cc1ccc(O)cc1)NC(=O)[C@H](CC(=O)O)NC(=O)[C@H](CO)NC(=O)[C@@H](NC(=O)[C@H](Cc1ccccc1)NC(=O)[C@@H](NC(=O)CNC(=O)[C@H](CCC(=O)O)NC(=O)C(C)(C)NC(=O)[C@@H](N)Cc1ccc(O)cc1)[C@@H](C)O)[C@@H](C)O)C(C)C)C(=O)N[C@@H](C)C(=O)NCC(=O)NCC(=O)N1CCC[C@H]1C(=O)N[C@@H](CO)C(=O)N[C@@H](CO)C(=O)NCC(=O)N[C@@H](C)C(=O)N1CCC[C@H]1C(=O)N1CCC[C@H]1C(=O)N1CCC[C@H]1C(=O)N[C@@H](CO)C(N)=O (H-Y[Aib]EGTFTSDYSYYLEKQAAKLFVC(X1)WLLAGGPSSGAPPPS-NH2)	–	–	7.2 nM	0.29 nM
CC(C)C[C@H](NC(=O)[C@H](CC(C)C)NC(=O)[C@H](Cc1c[nH]c2ccccc12)NC(=O)[C@H](CCC(N)=O)NC(=O)[C@@H](NC(=O)[C@H](Cc1ccccc1)NC(=O)[C@H](CC(C)C)NC(=O)[C@H](CCCCN)NC(=O)[C@H](C)NC(=O)[C@H](C)NC(=O)[C@H](CCC(N)=O)NC(=O)[C@H](CCCCN)NC(=O)[C@H](CCC(=O)O)NC(=O)[C@H](CC(C)C)NC(=O)[C@H](CSCC(=O)NCCCC[C@H](NC(=O)[C@@H](N)CCCCNC(=O)[C@@H](N)CCCCNC(=O)CC[C@H](NC(=O)CCCCCCCCCCCCCCCCCCC(=O)O)C(=O)O)C(=O)O)NC(=O)[C@H](Cc1ccc(O)cc1)NC(=O)[C@H](CO)NC(=O)[C@H](Cc1ccc(O)cc1)NC(=O)[C@H](CC(=O)O)NC(=O)[C@H](CO)NC(=O)[C@@H](NC(=O)[C@H](Cc1ccccc1)NC(=O)[C@@H](NC(=O)CNC(=O)[C@H](CCC(=O)O)NC(=O)C(C)(C)NC(=O)[C@@H](N)Cc1ccc(O)cc1)[C@@H](C)O)[C@@H](C)O)C(C)C)C(=O)N[C@@H](C)C(=O)NCC(=O)NCC(=O)N1CCC[C@H]1C(=O)N[C@@H](CO)C(=O)N[C@@H](CO)C(=O)NCC(=O)N[C@@H](C)C(=O)N1CCC[C@H]1C(=O)N1CCC[C@H]1C(=O)N1CCC[C@H]1C(=O)N[C@@H](CO)C(N)=O (H-Y[Aib]EGTFTSDYSYC(X1)LEKQAAKLFVQWLLAGGPSSGAPPPS-NH2)	–	–	0.14 nM	0.46 nM

Reference: ChEMBL document CHEMBL5576038, “Design of a novel long-acting dual GLP-1/GIP receptor agonist” (Bioorg Med Chem, 2024)
